Test results published in patent US9650340B2, “5-fluoro-N-(pyridin-2-yl)pyridin-2-amine derivatives containing a sulfoximine group” (BAYER PHARMA AKTIENGESELLSCHAFT, priority 2012, dated 2017).
Where two headings read alike, the source gives them in different places.

Key:
[1] = molecular target: T1, CDK2/CycE (Homo sapiens, UniProt P24941); experiment: CDK2/CycE kinase assay (TR-FRET, 10 μM ATP); assay type: biochemical; conditions: Method 2 (2a)
T1 construct: GST; purchased ProQinase GmbH (Freiburg, Germany); host or cells: insect cells (Sf9)
From the text: 2a. CDK2/CycE Kinase Assay:
CDK2/CycE-inhibitory activity of compounds of the present invention was quantified employing the CDK2/CycE TR-FRET assay as described in the following paragraphs:
Recombinant fusion proteins of GST and human CDK2 and of GST and human CycE, expressed in insect cells (Sf9) and purified by Glutathion-Sepharose affinity chromatography, were purchased from ProQinase GmbH (Freiburg, Germany). As substrate for the kinase reaction biotinylated peptide biotin-Ttds-[…] (C-terminus in amid form) was used which can be purchased e.g. form the company JERINI Peptide Technologies (Berlin, Germany).
For the assay 50 nl of a 100 fold concentrated solution of the test compound in DMSO was pipetted into a black low volume 384 well microtiter plate (Greiner Bio-One, Frickenhausen, Germany), 2 μl of a solution of CDK2/CycE in aqueous assay buffer [50 mM Tris/HCl pH 8.0, 10 mM MgCl2, 1.0 mM dithiothreitol, 0.1 mM sodium ortho-vanadate, 0.01% (v/v) Nonidet-P40 (Sigma)] were added and the mixture was incubated for 15 min at 22° C. to allow pre-binding of the test compounds to the enzyme before the start of the kinase reaction. Then the kinase reaction was started by the addition of 3 μl of a solution of adenosine-tri-phosphate (ATP, 16.7 μM=>final conc. in the 5 μl assay volume is 10 μM) and substrate (1.25 μM=>final conc. in the 5 μl assay volume is 0.75 μM) in assay buffer and the resulting mixture was incubated for a reaction time of 25 min at 22° C. The concentration of CDK2/CycE was adjusted depending of the activity of the enzyme lot and was chosen appropriate to have the assay in the linear range, typical concentrations were in the range of 130 ng/mL The reaction was stopped by the addition of 5 μl of a solution of TR-FRET detection reagents (0.2 μM streptavidine-XL665 [Cisbio Bioassays, Codolet, France] and 1 nM anti-RB(pSer807/pSer811)-antibody from BD Pharmingen [#558389] and 1.2 nM LANCE EU-W1024 labeled anti-mouse IgG antibody [Perkin-Elmer, product no. AD0077]) in an aqueous EDTA-solution (100 mM EDTA, 0.2% (w/v) bovine serum albumin in 100 mM HEPES/NaOH pH 7.0).
The resulting mixture was incubated 1 h at 22° C. to allow the formation of complex between the phosphorylated biotinylated peptide and the detection reagents. Subsequently the amount of phosphorylated substrate was evaluated by measurement of the resonance energy transfer from the Eu-chelate to the streptavidine-XL. Therefore, the fluorescence emissions at 620 nm and 665 nm after excitation at 350 nm was measured in a TR-FRET reader, e.g. a Rubystar (BMG Labtechnologies, Offenburg, Germany) or a Viewlux (Perkin-Elmer). The ratio of the emissions at 665 nm and at 622 nm was taken as the measure for the amount of phosphorylated substrate.

[2] = test system: HeLa, human cervical tumour cells; experiment: Proliferation assay, HeLa (crystal violet); assay type: cell-based; conditions: 4 days, read-out: Inhibition of HeLa cell proliferation IC50
Description: (§1) Cultivated tumour cells (HeLa, human cervical tumour cells, ATCC CCL-2; NCI-H460, human non-small cell lung carcinoma cells, ATCC HTB-177; A2780, human ovarian carcinoma cells, ECACC #93112519; DU 145, hormone-independent human prostate carcinoma cells, ATCC HTB-81; HeLa-MaTu-ADR, multidrug-resistant human cervical carcinoma cells, EPO-GmbH Berlin; Caco-2, human colorectal carcinoma cells, ATCC HTB-37; B16F10, mouse melanoma cells, ATCC CRL-6475) were plated at a density of 5,000 cells/well (DU145, HeLa-MaTu-ADR), 3,000 cells/well (NCI-H460, HeLa), 2,500 cells/well (A2780), 1,500 cells/well (Caco-2), or 1,000 cells/well (B16F10) in a 96-well multititer plate in 200 μL of their respective growth medium supplemented 10% fetal calf serum. After 24 hours, the cells of one plate (zero-point plate) were stained with crystal violet (see below), while the medium of the other plates was replaced by fresh culture medium (200 μl), to which the test substances were added in various concentrations (0 μM, as well as in the range of 0.001-10 μM; the final concentration of the solvent dimethyl sulfoxide was 0.5%). The cells were incubated for 4 days in the presence of test substances. Cell proliferation was determined by staining the cells with crystal violet: the cells were fixed by adding 20 μl/measuring point of an 11% glutaric aldehyde solution for 15 minutes at room temperature. After three washing cycles of the fixed cells with water, the plates were dried at room temperature. The cells were stained by adding 100 μl/measuring point of a 0.1% crystal violet solution (pH 3.0). After three washing cycles of the stained cells with water, the plates were dried at room temperature. The dye was dissolved by adding 100 μl/measuring point of a 10% acetic acid solution. The extinction was determined by photometry at a wavelength of 595 nm. The change of cell number, in percent, was calculated by normalization of the measured values to the extinction values of the zero-point plate (=0%) and the extinction of the untreated (0 μm) cells (=100%). The IC50 values (inhibitory concentration at 50% of maximal effect) were determined by means of a 4 parameter fit. Non-adherent MOLM-13 human acute myeloid leukemia cells (DSMZ ACC 554) were seeded at a density of 5,000 cells/well in a 96-well multititer plate in 100 μL of growth medium supplemented 10% fetal calf serum. After 24 hours, cell viability of one plate (zero-point plate) was determined with the Cell Titre-Glo Luminescent Cell Viability Assay (Promega), while 50 μL of test compound containing medium was added to the wells of the other plates (final concentrations in the range of 0.001-10 μM and DMSO controls; the final concentration of the solvent dimethyl sulfoxide was 0.5%). Cell viability was assessed after 72-hour exposure with the Cell Titre-Glo Luminescent Cell Viability Assay (Promega).

[3] = test system: Caco-2, human colorectal carcinoma cells; experiment: Proliferation assay, Caco-2 (crystal violet); assay type: cell-based; conditions: Caco-2, 4 days, read-out: Inhibition of Caco-2 cell proliferation IC50
Description: as §1

[4] = test system: B16F10, mouse melanoma cells; experiment: Proliferation assay, B16F10 (crystal violet); assay type: cell-based; conditions: B16F10, 4 days, read-out: Inhibition of B16F10 cell proliferation IC50
Description: as §1

[5] = test system: HeLa-MaTu-ADR, multidrug-resistant human cervical carcinoma cells; experiment: Proliferation assay, HeLa-MaTu-ADR (crystal violet); assay type: cell-based; conditions: 4 days, read-out: Inhibition of HeLa-MaTu-ADR cell proliferation IC50
Description: as §1

IC50 [1] [µM]	IC50 ([2]; Homo sapiens, 96 h) [µM]	IC50 ([3]; Homo sapiens, Caco-2, 96 h) [µM]	IC50 ([4]; Mus musculus, B16-F10, 96 h) [µM]	IC50 ([5]; Homo sapiens, 96 h) [µM]	IC50 [5] [µM]	IC50 [4] [µM]	IC50 [2] [µM]	IC50 [3] [µM]	SMILES
0.14	0.093	0.11	0.12						COc1cc(F)ccc1-c1cc(Nc2cc(CS(C)(=N)=O)c(Br)c(C)n2)ncc1F (racemic) [Example 5, (rac)-5-Bromo-N-[5-fluoro-4-(4-fluoro-2-methoxyphenyl)pyridin-2-yl]-6-methyl-4-[(S-methylsulfonimidoyl)methyl]pyridin-2-amine]
0.01	0.04	0.039	0.045	0.031					CCOC(=O)N=S(C)(=O)Cc1cc(Nc2cc(-c3ccc(F)cc3OC)c(F)cn2)nc(OC)c1 (racemic) [Example 15, (rac)-ethyl{[(2-{[5-fluoro-4-(4-fluoro-2-methoxyphenyl)pyridin-2-yl]amino}-6-methoxypyridin-4-yl)methyl](methyl)oxido-λ^6-sulfanylidene}carbamate]
0.039	0.061	0.043	0.068	0.035					COc1cc(F)ccc1-c1cc(Nc2cc(CS(C)(=O)=NC(=O)C(F)(F)F)cc(F)n2)ncc1F (racemic) [Example 18, (rac)-2,2,2-Trifluoro-N-{[(2-fluoro-6-{[5-fluoro-4-(4-fluoro-2-methoxyphenyl)pyridin-2-yl]amino}pyridin-4-yl)methyl](methyl)oxido-λ^6-sulfanylidene}acetamide]
1.2	0.1	0.13	0.15	0.11					CCOc1cc(F)ccc1-c1cc(Nc2cc(CS(C)(=O)=NC(=O)C(F)(F)F)cc(F)n2)ncc1F (racemic) [Example 27, (rac)-N-{[(2-{[4-(2-Ethoxy-4-fluoro-phenyl)-5-fluoropyridin-2-yl]amino}-6-fluoropyridin-4-yl)methyl]-(methyl)oxido-λ^6-sulfanylidene}-2,2,2-trifluoroacetamide]
0.21	0.1	0.052	0.12	0.074					CCS(=N)(=O)Cc1ccnc(Nc2cc(-c3ccc(F)cc3OC)c(F)cn2)c1 (racemic) [Example 30, (rac)-N-{4-[(S-Ethylsulfonimidoyl)-methyl]pyridin-2-yl}-5-fluoro-4-(4-fluoro-2-methoxyphenyl)pyridin-2-amine]
0.01	0.008								COc1cc(F)ccc1-c1cc(Nc2cc(CS(C)(=N)=O)cc(C(F)F)n2)ncc1F (racemic) [Example 31, (rac)-N-{6-(Difluoromethyl)-4-[(S-methylsulfonimidoyl)methyl]pyridin-2-yl}-5-fluoro-4-(4-fluoro-2-methoxyphenyl)pyridin-2-amine]
0.094			0.095	0.064					COc1cc(F)ccc1-c1cc(Nc2cc(CS(C)(=N)=O)cc(F)n2)ncc1F (single isomer, unassigned; (+)) [Example 19, (+)-5-Fluoro-4-(4-fluoro-2-methoxyphenyl)-N-{6-fluoro-4-[(S-methylsulfonimidoyl)methyl]pyridin-2-yl}pyridin-2-amine]
0.25	0.032	0.041	0.043	0.03					COc1cc(F)ccc1-c1cc(Nc2cc(CS(C)(=O)=NC(=O)C(F)(F)F)cc(C(F)(F)F)n2)ncc1F (single isomer, unassigned; (+)) [Example 24, (+)-2,2,2-Trifluoro-N-[{[2-{[5-fluoro-4-(4-fluoro-2-methoxyphenyl)pyridin-2-yl]amino}-6-(trifluoromethyl)-pyridin-4-yl]methyl}(methyl)oxido-λ^6-sulfanylidene]acetamide]
0.12	0.099	0.12	0.15	0.12					CCOc1cc(F)ccc1-c1cc(Nc2cc(CS(C)(=N)=O)cc(F)n2)ncc1F (single isomer, unassigned; (+)) [Example 28, (+)-4-(2-Ethoxy-4-fluorophenyl)-5-fluoro-N-{6-fluoro-4-[(S-methylsulfonimidoyl)methyl]pyridin-2-yl}pyridin-2-amine]
0.072	0.03	0.045			0.038	0.054			COc1cc(F)ccc1-c1cc(Nc2cc(CS(C)(=N)=O)cc(F)n2)ncc1F (single isomer, unassigned; (-)) [Example 20, (−)-5-Fluoro-4-(4-fluoro-2-methoxyphenyl)-N-{6-fluoro-4-[(S-methylsulfonimidoyl)methyl]pyridin-2-yl}pyridin-2-amine]
0.11					0.03	0.05	0.035	0.045	COc1cc(F)ccc1-c1cc(Nc2cc(CS(C)(=O)=NC(=O)C(F)(F)F)cc(C(F)(F)F)n2)ncc1F (single isomer, unassigned; (-)) [Example 25, (−)-2,2,2-Trifluoro-N-[{[2-{[5-fluoro-4-(4-fluoro-2-methoxyphenyl)pyridin-2-yl]amino}-6-(trifluoromethyl)-pyridin-4-yl]methyl}(methyl)oxido-λ^6-sulfanylidene]acetamide]
0.098					0.081	0.11	0.11	0.1	CCOc1cc(F)ccc1-c1cc(Nc2cc(CS(C)(=N)=O)cc(F)n2)ncc1F (single isomer, unassigned; (-)) [Example 29, (−)-4-(2-Ethoxy-4-fluorophenyl)-5-fluoro-N-{6-fluoro-4-[(S-methylsulfonimidoyl)methyl]pyridin-2-yl}pyridin-2-amine]
